Values of other authors as cited in paper PMC10931745 (International Journal of Molecular Sciences, 2024).

Assays:
[1] = test system: Escherichia coli (ATCC 25922); design: method as in PMID 36179970; settings: literature data ref 74; cited from earlier work
[2] = test system: Staphylococcus aureus (ATCC 23235); design: method as in doi:10.1186/s40543-021-00294-2; settings: literature data ref 75; cited from earlier work
[3] = test system: Enterococcus faecalis (ATCC 19433); design: method as in PMID 24586598; settings: literature data ref 78; cited from earlier work
[4] = test system: Klebsiella pneumoniae (ATCC 13883); design: method as in PMID 35203751; settings: literature data ref 77; cited from earlier work
[5] = test system: Staphylococcus epidermidis (ATCC 14990); design: method as in PMID 16556639; settings: literature data ref 76; cited from earlier work

Row | SMILES | M.B.C. E. coli [1] [µg/mL] | M.I.C. E. coli [1] [µg/mL] | M.B.C. S. aureus [2] | M.I.C. S. aureus [2] | M.B.C. E. faecalis [3] [µg/mL] | M.I.C. E. faecalis [3] [µg/mL] | M.B.C. K. pneumoniae [4] [µg/mL] | M.I.C. K. pneumoniae [4] [µg/mL] | M.B.C. S. epidermidis [5] [µg/mL] | M.I.C. S. epidermidis [5] [µg/mL]
1 | CC1(C)S[C@@H]2[C@H](NC(=O)[C@H](N)c3ccccc3)C(=O)N2[C@H]1C(=O)O [Ampicillin] | 4 | 2 | 1/(1) [75] µg/mL | 1/(1) [75] µg/mL | – | – | – | – | – | –
2 | CNC(C)C1CCC(N)C(OC2C(N)CC(N)C(OC3OCC(C)(O)C(NC)C3O)C2O)O1 (stereo not shown) [Gentamicin] | – | – | – | – | 128 | 4 | > 40 | 1.25 | 16 to 64 | 8 to 32
